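Where inhibition never reached the appropriate level, the endpoint shown equals the highest concentration tested. Otherwise, values were interpolated linearly from a five-concentration, 48-hour dose response in 96-well plates. GI50: concentration for 50% inhibition of growth. TGI denotes the concentration required for complete inhibition of growth.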
Key:
Assay in all cases: NCI tumour cell line growth inhibition, 48 h
ACHN renal = test system: ACHN renal
OVCAR-8 ovarian = test system: OVCAR-8 ovarian
T-47D breast = test system: T-47D breast
OVCAR-5 ovarian = test system: OVCAR-5 ovarian
CAKI-1 renal = test system: CAKI-1 renal
SF-539 CNS = test system: SF-539 CNS
OVCAR-3 ovarian = test system: OVCAR-3 ovarian
HCC-2998 colon = test system: HCC-2998 colon
A498 renal = test system: A498 renal
SNB-19 CNS = test system: SNB-19 CNS

Row | Structure (SMILES) | TGI (ACHN renal) [µM] | TGI (OVCAR-8 ovarian) [µM] | TGI (T-47D breast) [µM] | TGI (OVCAR-5 ovarian) [µM] | TGI (CAKI-1 renal) [µM] | TGI (SF-539 CNS) [µM] | TGI (OVCAR-3 ovarian) [µM] | TGI (HCC-2998 colon) [µM] | TGI (A498 renal) [µM] | TGI (SNB-19 CNS) [µM] | GI50 (ACHN renal) [µM] | GI50 (OVCAR-8 ovarian) [µM] | GI50 (T-47D breast) [µM] | GI50 (OVCAR-5 ovarian) [µM] | GI50 (CAKI-1 renal) [µM] | GI50 (SF-539 CNS) [µM] | GI50 (OVCAR-3 ovarian) [µM] | GI50 (HCC-2998 colon) [µM] | GI50 (A498 renal) [µM] | GI50 (SNB-19 CNS) [µM]
1 | N#Cc1ccc2[nH]c3c(c2c1)CC(=O)Nc1ccccc1-3 | > 100 | > 100 | > 100 | > 100 | > 100 | > 100 | > 100 | > 100 | > 100 | > 100 | – | – | – | – | – | – | – | – | – | –
2 | Cn1c(COC(=O)NC2CCCCC2)c(COC(=O)NC2CCCCC2)c2ccc3cc(C=O)ccc3c21 | > 100 | > 100 | > 100 | > 100 | > 100 | > 100 | > 100 | > 100 | > 100 | > 100 | – | – | – | – | – | – | – | – | – | –
3 | CN(C)CC1CCCc2ccccc2C1=O (stereo not given) | 3.3 | 4.29 | 17 | 33.5 | 6.25 | 10.1 | 3.57 | 12 | 49.6 | 26.4 | – | – | – | – | – | – | – | – | – | –
4 | CN1C=COC1N=C1CCCCC1 (stereo not given) | > 100 | > 100 | > 100 | > 100 | 9.16 | > 100 | > 100 | > 100 | > 100 | 12 | – | – | – | – | – | – | – | – | – | –
5 | O=c1c2cc(I)ccc2nc(SCc2nnco2)n1Cc1ccccc1 | > 100 | > 100 | > 100 | > 100 | > 100 | > 100 | > 100 | > 100 | > 100 | > 100 | – | – | – | – | – | – | – | – | – | –
6 | COc1cc(/C(=C2/O[C@@H]([C@H]3COC(C)(C)O3)[C@H]3OC(C)(C)O[C@@H]23)c2ccc3c(c2)OCO3)cc(OC)c1OC | > 25 | > 25 | > 25 | > 25 | > 25 | > 25 | > 25 | > 25 | > 25 | > 25 | 4.68 | > 25 | 14.5 | 4.85 | > 25 | 8.05 | > 25 | > 25 | > 25 | > 25
7 | COc1cc(O)cc(O)c1C(=O)CC(Cl)(Cl)Cl | > 100 | > 100 | > 100 | > 100 | > 100 | > 100 | > 100 | > 100 | > 100 | > 100 | – | – | – | – | – | – | – | – | – | –
8 | OC1(c2ccc(Cl)cc2)c2c(c3ccccc3c3ccccc23)C2=NCCN21 (stereo not given) | 28.8 | 28.5 | > 100 | 46 | 68.8 | 24.5 | 62.1 | 6.85 | 43.7 | 27.8 | – | – | – | – | – | – | – | – | – | –
9 | COc1cc(C2c3cc(OC)c(OC)c(O)c3C(=O)C3CCC(=O)N32)cc(OC)c1OC (stereo not given) | > 100 | 71.4 | > 100 | > 100 | > 100 | > 100 | > 100 | > 100 | > 100 | > 100 | – | – | – | – | – | – | – | – | – | –
10 | COc1cc([C@@H]2c3cc4c(cc3[C@@H](c3c(O)cc(O)c5c3O[C@H](c3ccc(O)c(O)c3)[C@H](OC(=O)c3cc(O)c(O)c(O)c3)C5)[C@H]3COC(=O)[C@H]23)OCO4)cc(OC)c1O | > 100 | > 100 | > 100 | > 100 | > 100 | 60.1 | > 100 | 92.3 | > 100 | > 100 | – | – | – | – | – | – | – | – | – | –
11 | COc1ccc(N2N=NN(C(C)C)/C2=C(/Cl)c2nnnn2-c2ccc(OC)cc2)cc1 | 30.7 | 18 | 15.3 | 26.9 | 3.16 | 33.5 | 24.5 | 34.4 | 30.5 | 31.6 | – | – | – | – | – | – | – | – | – | –
12 | CS(=O)(=O)OCC1CCCCCCCCCCC12SCCCS2 (stereo not given) | > 100 | > 100 | > 100 | > 100 | > 100 | > 100 | > 100 | > 100 | > 100 | > 100 | – | – | – | – | – | – | – | – | – | –
13 | O=C(/C=C/c1ccccc1)Oc1cccc(Br)c1 | > 100 | > 100 | > 100 | > 100 | > 100 | > 100 | > 100 | > 100 | > 100 | > 100 | – | – | – | – | – | – | – | – | – | –
14 | C[C@]12CC[C@H](O)CC1=CC[C@@H]1[C@@H]2CC[C@]2(C)C(=O)/C(=C/c3ccc([N+](=O)[O-])cc3)C[C@@H]12 | 33.4 | 12.3 | 61.6 | 50.9 | > 100 | 20.9 | 33.8 | > 100 | 30.4 | 27.8 | – | – | – | – | – | – | – | – | – | –
15 | O=C1CCCCN1C(=O)c1ccc([N+](=O)[O-])cc1 | > 100 | > 100 | > 100 | > 100 | > 100 | > 100 | > 100 | > 100 | > 100 | > 100 | – | – | – | – | – | – | – | – | – | –
